Results on 25 compounds are retold here after patent US10414763B2 (CANCER RESEARCH TECHNOLOGY LIMITED, priority 2014, dated 2019).

The assay concerns the target T1, full-length human PKCι (Homo sapiens, UniProt P41743).
T1 construct: Recombinant, full-length human PKCι expressed in Sf21 insect cells is also commercially available; purchased EMD Millipore; host or cells: Sf21 insect cells (baculovirus)
T1 sequence (P41743 1-596): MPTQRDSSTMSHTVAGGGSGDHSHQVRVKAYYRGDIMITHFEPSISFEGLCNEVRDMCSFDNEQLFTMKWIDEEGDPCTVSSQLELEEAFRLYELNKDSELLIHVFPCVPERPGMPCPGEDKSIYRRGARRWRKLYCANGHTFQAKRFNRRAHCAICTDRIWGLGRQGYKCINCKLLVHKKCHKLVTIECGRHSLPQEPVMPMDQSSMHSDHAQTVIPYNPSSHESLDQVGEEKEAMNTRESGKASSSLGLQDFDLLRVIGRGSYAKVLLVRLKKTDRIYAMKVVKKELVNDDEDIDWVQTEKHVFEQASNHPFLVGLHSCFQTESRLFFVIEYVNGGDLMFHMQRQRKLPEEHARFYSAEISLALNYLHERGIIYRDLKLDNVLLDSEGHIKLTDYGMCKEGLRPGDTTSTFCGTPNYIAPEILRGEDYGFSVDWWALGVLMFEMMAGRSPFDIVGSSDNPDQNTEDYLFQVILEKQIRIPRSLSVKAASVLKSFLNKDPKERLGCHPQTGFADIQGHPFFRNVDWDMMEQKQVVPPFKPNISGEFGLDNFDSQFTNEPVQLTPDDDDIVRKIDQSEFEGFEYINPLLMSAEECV
In words: PKCι IC50 IMAP fluorescence polarisation assay, full-length enzyme, 150 μM ATP. In kind it is biochemical. Particulars: read-out: IC50 in IMAP assay against full length PKCi at 150 μM ATP. In short, it runs like this:
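IMAP fluorescence polarisation kinase assay: 15 pM baculovirus-expressed human PKCiota with 100 nM FAM-pseudosubstrate peptide and 150 μM ATP, 1 h at 25 °C. IMAP detection reagent then 2 h at 25 °C before FP measurement. Inhibition referenced to no-compound and no-enzyme controls for IC50 fitting.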

Where only a bound is given, the exact number is not on record here.

For orientation: IC50 means the concentration needed to halve the response being measured. Take `C[C@@H]1CNCC[C@H]1Nc1nc(-c2ccnc(Nc3nc(F)ccc3F)c2)nc2cncc(C3CCC3)c12` (single isomer, unassigned) [Example 279, {5-Cyclobutyl-2-[2-(3,6-difluoro-pyridin-2-ylamino)-pyridin-4-yl]-pyrido[3,4-d]pyrimidin-4-yl}-((3R,4R)-3-methyl-piperidin-4-yl)-amine or enantiomer]: the IC50 is under 100 nM.
`c1ccc(-n2cnc(Nc3cc(-c4nc(N5CCC6NCCCC65)c5c(C6CC6)cncc5n4)ccn3)n2)cc1` (stereo not shown) [Example 245, {4-[5-Cyclopropyl-4-(octahydro-pyrrolo[3,2-b]pyridin-1-yl)-pyrido[3,4-d]pyrimidin-2-yl]-pyridin-2-yl}-(1-phenyl-1H-1,2,4-triazol-3-yl)-amine]: the IC50 was under 100 nM.
For `CC1(C)CNCC[C@@H]1Nc1nc(-c2ccnc(Nc3ncn(Cc4ccccc4)n3)c2)nc2cncc(C3CC3)c12` [Example 242, {2-[2-(1-Benzyl-1H-1,2,4-triazol-3-ylamino)-pyridin-4-yl]-5-cyclopropyl-pyrido[3,4-d]pyrimidin-4-yl}-((S)-3,3-dimethyl-piperidin-4-yl)-amine], the IC50 is under 100 nM.
Then `c1cc(-c2nc(N3CCNCC3)c3c(C4CC4)cncc3n2)cc(Nc2nc3n(n2)CCCC3)n1` [Example 205, [4-(5-Cyclopropyl-4-piperazin-1-yl-pyrido[3,4-d]pyrimidin-2-yl)-pyridin-2-yl]-(5,6,7,8-tetrahydro-[1,2,4]triazolo[1,5-a]pyridin-2-yl)-amine], with under 100 nM; and `c1ccc2c(c1)[nH]c1nccc(-c3nc(N4CC[C@H]5CNC[C@H]54)c4c(C5CCC5)cncc4n3)c12` [Example 10, 4-((S)-5-Cyclobutyl-4 (S)-hexahydro-pyrrolo[3,4-b]pyrrol-1-yl-pyrido[3,4-d]pyrimidin-2-yl)-9H-pyrido[2,3-b]indole], with under 100 nM.
With `N[C@H]1C[C@@H](Nc2nc(-c3ccnc4[nH]c5ccccc5c34)nc3cncc(C(F)(F)F)c23)C1` [Example 218, cis-N-[2-(9H-Pyrido[2,3-b]indol-4-yl)-5-trifluoromethyl-pyrido[3,4-d]pyrimidin-4-yl]-cyclobutane-1,3-diamine], the IC50 was in the range of 100 to 1000 nM.
For `CC1(C)CNCC[C@@H]1Nc1nc(-c2ccnc3[nH]c(C(F)(F)F)cc23)nc2cncc(C3CCC3)c12` [Example 228, [5-Cyclobutyl-2-(2-trifluoromethyl-1H-pyrrolo[2,3-b]pyridin-4-yl)-pyrido[3,4-d]pyrimidin-4-yl]-((S)-3,3-dimethyl-piperidin-4-yl)-amine], the IC50 is under 100 nM.
On to `OC1CNCCC(Nc2nc(-c3ccnc4[nH]c5ccccc5c34)nc3cncc(C4CCC4)c23)C1` (racemic) [Example 231, Trans- or cis-(±)-5-[5-Cyclobutyl-2-(9H-pyrido[2,3-b]indol-4-yl)-pyrido[3,4-d]pyrimidin-4-ylamino]-azepan-3-ol], for which the IC50 is under 100 nM.
In the case of `CC(C)(C)c1csc(Nc2cc(-c3nc(N4CCNCC4)c4c(C5CC5)cncc4n3)ccn2)n1` [Example 52, (4-tert-Butyl-thiazol-2-yl)-[4-(5-cyclopropyl-4-pipcrazin-1-yl-pyrido[3,4-d]pyrimidin-2-yl)-pyridin-2-yl]-amine], the IC50 lay in the range of 100 to 1000 nM.
In the case of `c1ccc(Cn2cnc(Nc3cc(-c4nc(N5CCC6CNCCC65)c5c(C6CC6)cncc5n4)ccn3)n2)cc1` (stereo not shown) [Example 239, (1-Benzyl-1H-1,2,4-triazol-3-yl)-{4-[5-cyclopropyl-4-(octahydro-pyrrolo[3,2-c]pyridin-1-yl)-pyrido[3,4-d]pyrimidin-2-yl]-pyridin-2-yl}-amine], the IC50 was under 100 nM.
As for `CN(c1nc(-c2ccnc3[nH]c(-c4cccnc4)cc23)nc2cncc(C3CC3)c12)[C@H]1CCNCC1(C)C` [Example 385, [5-Cyclopropyl-2-(2-pyridin-3-yl-1H-pyrrolo[2,3-b]pyridin-4-yl)-pyrido[3,4-d]pyrimidin-4-yl]-((S)-3,3-dimethyl-piperidin-4-yl)-methyl-amine], the figure is under 100 nM.
On to `CN(c1nc(-c2ccnc3[nH]c(-c4ccc(Cl)cc4Cl)cc23)nc2cncc(C3CC3)c12)C1CCNCC1(C)C` (stereo not shown) [Example 24, {5-Cyclopropyl-2-[2-(2,4-dichloro-phenyl)-1H-pyrrolo[2,3-b]pyridin-4-yl]-pyrido[3,4-d]pyrimidin-4-yl}-(3,3-dimethyl-piperidin-4-yl)-methyl-amine], for which the IC50 was under 100 nM.
In the case of `CC1(C)CNCC[C@@H]1Nc1nc(-c2ccnc(Nc3ncc(C#N)cc3F)c2)nc2cncc(C3CC3)c12` [Example 333, 6-[[4-[5-Cyclopropyl-4-[[(4S)-3,3-dimethyl-4-piperidyl]amino]pyrido[3,4-d]pyrimidin-2-yl]-2-pyridyl]amino]-5-fluoro-pyridine-3-carbonitrile], the IC50 was under 100 nM.
Turning to `CN(c1nc(-c2ccnc3[nH]c4ccccc4c23)nc2cncc(C3CCC3)c12)C1CCC(N)C1` (stereo not shown) [Example 78, N-[5-Cyclobutyl-2-(9H-pyrido[2,3-b]indol-4-yl)-pyrido[3,4-d]pyrimidin-4-yl]-N-methyl-cyclopentane-1,3-diamine], the IC50 is under 100 nM.
Then `CC1(C)CNCCC1Nc1nc(-c2ccnc(Nc3ccc(OC(F)(F)F)cc3)c2)nc2cncc(C3CCC3)c12` (stereo not shown) [Example 90, {5-Cyclobutyl-2-[2-(4-trifluoromethoxy-phenylamino)-pyridin-4-yl]-pyrido[3,4-d]pyrimidin-4-yl}-(3,3-dimethyl-piperidin-4-yl)-amine], with 100 to 1000 nM; and `Cn1nc(Nc2cc(-c3nc(N[C@H]4CCNCC4(C)C)c4c(C5CCC5)cncc4n3)ccn2)c2ccccc21` [Example 284, {5-Cyclobutyl-2-[2-(1-methyl-1H-indazol-3-ylamino)-pyridin-4-yl]-pyrido[3,4-d]pyrimidin-4-yl}-((S)-3,3-dimethyl-piperidin-4-yl)-amine], with under 100 nM.
As for `Cc1cc2c(-c3nc(N[C@@H]4CCNCC4(C)C)c4c(C5CC5)cncc4n3)ccnc2[nH]1` [Example 154, [5-Cyclopropyl-2-(2-methyl-1H-pyrrolo[2,3-b]pyridin-4-yl)-pyrido[3,4-d]pyrimidin-4-yl]-((R)-3,3-dimethyl-piperidin-4-yl)-amine], the figure is under 100 nM.
Consider `C[C@@H]1CNCC[C@H]1Nc1nc(-c2ccnc(Nc3nc(F)cc(F)c3F)c2)nc2cncc(C3CCC3)c12` (racemic) [Example 291, {5-Cyclobutyl-2-[2-(3,4,6-trifluoro-pyridin-2-ylamino)-pyridin-4-yl]-pyrido[3,4-d]pyrimidin-4-yl}-(rac-(3R,4R)-3-methyl-piperidin-4-yl)-amine], for which the IC50 is under 100 nM.
As for `Clc1ccc(-c2cc3c(-c4nc(N5CCNCC5)c5c(C6CC6)cncc5n4)ccnc3[nH]2)c(Cl)c1` [Example 18, 5-Cyclopropyl-2-[2-(2,4-dichloro-phenyl)-1H-pyrrolo[2,3-b]pyridin-4-yl]-4-piperazin-1-yl-pyrido[3,4-d] pyrimidine], the IC50 is under 100 nM.
With `CSc1cc2c(-c3nc(N(C)C4CCNCC4)c4c(C5CC5)cncc4n3)ccnc2[nH]1` [Example 119, [5-Cyclopropyl-2-(2-methylsulfanyl-1H-pyrrolo[2,3-b]pyridin-4-yl)-pyrido[3,4-d]pyrimidin-4-yl]-methyl-piperidin-4-yl-amine], the IC50 is under 100 nM.
Then `O[C@H]1CNCC[C@H]1Nc1nc(-c2ccnc(Nc3ccc4ccccc4n3)c2)nc2cncc(C3CCC3)c12` (racemic) [Example 270, rac-(3S,4R)-4-{5-Cyclobutyl-2-[2-(quinolin-2-ylamino)-pyridin-4-yl]-pyrido[3,4-d]pyrimidin-4-ylamino}-piperidin-3-ol], with under 100 nM; and `O[C@@H]1CNCC[C@H]1Nc1nc(-c2ccnc(Nc3ncc(F)cc3F)c2)nc2cncc(C3CC3)c12` (racemic) [Example 309, rac-(3R,4R)-4-{5-Cyclopropyl-2-[2-(3,5-difluoro-pyridin-2-ylamino)-pyridin-4-yl]-pyrido[3,4-d]pyrimidin-4-ylamino}-piperidin-3-ol], with under 100 nM.
For `O[C@]12CCN(c3nc(-c4ccnc(Nc5nc6ccccn6n5)c4)nc4cncc(C5CC5)c34)[C@H]1CCNC2` (racemic) [Example 151, (±)-(3aS,7aS)-1-{5-Cyclopropyl-2-[2-([1,2,4]triazolo[1,5-a]pyridin-2-ylamino)-pyridin-4-yl]-pyrido[3,4-d]pyrimidin-4-yl}-octahydro-pyrrolo [3,2-c]pyridin-3a-ol], the IC50 is under 100 nM.
Then `CC1(C)CNCC[C@@H]1Nc1nc(-c2ccnc(Nc3cc4ccccn4n3)c2)nc2cncc(C3CC3)c12` [Example 328, 5-Cyclopropyl-N-[(4S)-3,3-dimethyl-4-piperidyl]-2-[2-(pyrazolo[1,5-a]pyridin-2-ylamino)-4-pyridyl]pyrido[3,4-d]pyrimidin-4-amine], with under 100 nM.
Regarding `c1cncc(-c2cc3c(-c4nc(N[C@H]5CCCNCC5)c5c(C6CC6)cncc5n4)ccnc3[nH]2)c1` [Example 369, (S)-Azepan-4-yl-[5-cyclopropyl-2-(2-pyridin-3-yl-1H-pyrrolo[2,3-b]pyridin-4-yl)-pyrido[3,4-d]pyrimidin-4-yl]-amine], the IC50 was under 100 nM.
